# According to the kinase profiling compilation of Christmann-Franck et al. (2016):
# Key:
# Experiment in all cases: radiometric filter-binding kinase assay, Kinase HotSpot
# Conditions in all cases: compound 0.5 µM; ATP 10 µM
# MYLK2 (human) = MYLK2 (human) (UniProt Q9H1R3)
# FRK (human) = FRK (human) (UniProt P42685)
# MAP3K5 (human) = MAP3K5 (human) (UniProt Q99683)
# CDK5 CDK5R1 p35 (human) = CDK5 CDK5R1 p35 (human) (UniProt Q00535+Q15078)
# PBK (human) = PBK (human) (UniProt Q96KB5)
# PLK1 (human) = PLK1 (human) (UniProt P53350)
# IGF1R (human) = IGF1R (human) (UniProt P08069)
# CDK4 CCND1 (human) = CDK4 CCND1 (human) (UniProt P24385+P11802)
# Chain of CDK4 CCND1 (human) (P11802 whole entry, looked up): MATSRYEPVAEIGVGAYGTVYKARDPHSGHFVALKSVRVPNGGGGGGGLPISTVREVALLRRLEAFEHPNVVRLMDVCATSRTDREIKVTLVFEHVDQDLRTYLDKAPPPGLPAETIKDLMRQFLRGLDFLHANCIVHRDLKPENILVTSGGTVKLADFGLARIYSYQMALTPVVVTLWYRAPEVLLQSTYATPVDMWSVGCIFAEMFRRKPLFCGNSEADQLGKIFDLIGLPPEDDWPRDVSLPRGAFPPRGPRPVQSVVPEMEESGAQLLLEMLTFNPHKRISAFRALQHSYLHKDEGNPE
# Chain of CDK4 CCND1 (human) (P24385 whole entry, looked up): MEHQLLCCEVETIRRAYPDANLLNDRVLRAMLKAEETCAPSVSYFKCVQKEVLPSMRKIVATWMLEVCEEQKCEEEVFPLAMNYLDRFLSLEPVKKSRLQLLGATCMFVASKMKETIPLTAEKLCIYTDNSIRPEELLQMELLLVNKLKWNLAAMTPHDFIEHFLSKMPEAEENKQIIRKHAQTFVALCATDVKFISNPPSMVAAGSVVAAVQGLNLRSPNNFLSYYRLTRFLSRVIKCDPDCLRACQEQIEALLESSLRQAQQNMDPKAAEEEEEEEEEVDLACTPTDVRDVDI
# CAMK2A (human) = CAMK2A (human) (UniProt Q9UQM7)
# EPHB1 (human) = EPHB1 (human) (UniProt P54762)
# [1] = target: JAK1 JH1 catalytic (human) (UniProt P23458)
# MET (human) = MET (human) (UniProt P08581)
# Chain of MET (human) (P08581 whole entry, looked up): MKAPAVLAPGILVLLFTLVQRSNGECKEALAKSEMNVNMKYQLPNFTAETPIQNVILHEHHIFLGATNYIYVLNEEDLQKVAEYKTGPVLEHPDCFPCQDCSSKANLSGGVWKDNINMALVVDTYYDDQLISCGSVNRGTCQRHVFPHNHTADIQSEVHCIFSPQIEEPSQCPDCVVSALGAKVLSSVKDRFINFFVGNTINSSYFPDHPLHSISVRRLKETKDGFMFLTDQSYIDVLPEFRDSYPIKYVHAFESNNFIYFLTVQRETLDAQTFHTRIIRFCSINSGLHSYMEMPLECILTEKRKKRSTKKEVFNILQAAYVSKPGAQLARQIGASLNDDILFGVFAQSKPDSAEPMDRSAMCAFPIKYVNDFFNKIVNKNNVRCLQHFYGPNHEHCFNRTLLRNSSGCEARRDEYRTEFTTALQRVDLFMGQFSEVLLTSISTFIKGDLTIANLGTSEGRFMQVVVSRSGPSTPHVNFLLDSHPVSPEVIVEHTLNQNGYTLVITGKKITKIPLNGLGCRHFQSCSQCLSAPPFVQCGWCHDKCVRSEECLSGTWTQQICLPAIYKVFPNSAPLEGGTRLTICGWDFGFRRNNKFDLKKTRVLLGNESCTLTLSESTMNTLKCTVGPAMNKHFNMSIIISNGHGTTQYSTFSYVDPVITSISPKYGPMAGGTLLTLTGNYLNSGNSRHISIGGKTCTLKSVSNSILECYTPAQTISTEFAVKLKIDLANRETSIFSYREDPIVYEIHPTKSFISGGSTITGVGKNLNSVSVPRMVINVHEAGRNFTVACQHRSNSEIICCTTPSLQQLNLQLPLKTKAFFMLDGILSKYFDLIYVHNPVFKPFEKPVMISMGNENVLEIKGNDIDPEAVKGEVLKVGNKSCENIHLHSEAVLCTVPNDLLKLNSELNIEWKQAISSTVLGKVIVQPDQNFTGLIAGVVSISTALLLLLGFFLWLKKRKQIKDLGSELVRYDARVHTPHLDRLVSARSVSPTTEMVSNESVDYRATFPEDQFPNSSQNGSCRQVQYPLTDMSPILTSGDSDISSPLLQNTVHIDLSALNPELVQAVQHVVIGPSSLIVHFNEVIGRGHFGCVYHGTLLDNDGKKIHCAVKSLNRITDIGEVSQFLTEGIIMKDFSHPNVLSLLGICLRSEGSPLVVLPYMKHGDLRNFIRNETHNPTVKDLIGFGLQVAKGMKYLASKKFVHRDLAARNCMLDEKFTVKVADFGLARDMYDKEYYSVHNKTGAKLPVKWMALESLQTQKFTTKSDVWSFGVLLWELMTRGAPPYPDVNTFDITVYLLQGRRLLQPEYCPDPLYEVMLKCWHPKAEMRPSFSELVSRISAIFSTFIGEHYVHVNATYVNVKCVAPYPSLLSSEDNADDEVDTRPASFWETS
# CDC42BPB (human) = CDC42BPB (human) (UniProt Q9Y5S2)
# Chain of CDC42BPB (human) (Q9Y5S2 whole entry, looked up): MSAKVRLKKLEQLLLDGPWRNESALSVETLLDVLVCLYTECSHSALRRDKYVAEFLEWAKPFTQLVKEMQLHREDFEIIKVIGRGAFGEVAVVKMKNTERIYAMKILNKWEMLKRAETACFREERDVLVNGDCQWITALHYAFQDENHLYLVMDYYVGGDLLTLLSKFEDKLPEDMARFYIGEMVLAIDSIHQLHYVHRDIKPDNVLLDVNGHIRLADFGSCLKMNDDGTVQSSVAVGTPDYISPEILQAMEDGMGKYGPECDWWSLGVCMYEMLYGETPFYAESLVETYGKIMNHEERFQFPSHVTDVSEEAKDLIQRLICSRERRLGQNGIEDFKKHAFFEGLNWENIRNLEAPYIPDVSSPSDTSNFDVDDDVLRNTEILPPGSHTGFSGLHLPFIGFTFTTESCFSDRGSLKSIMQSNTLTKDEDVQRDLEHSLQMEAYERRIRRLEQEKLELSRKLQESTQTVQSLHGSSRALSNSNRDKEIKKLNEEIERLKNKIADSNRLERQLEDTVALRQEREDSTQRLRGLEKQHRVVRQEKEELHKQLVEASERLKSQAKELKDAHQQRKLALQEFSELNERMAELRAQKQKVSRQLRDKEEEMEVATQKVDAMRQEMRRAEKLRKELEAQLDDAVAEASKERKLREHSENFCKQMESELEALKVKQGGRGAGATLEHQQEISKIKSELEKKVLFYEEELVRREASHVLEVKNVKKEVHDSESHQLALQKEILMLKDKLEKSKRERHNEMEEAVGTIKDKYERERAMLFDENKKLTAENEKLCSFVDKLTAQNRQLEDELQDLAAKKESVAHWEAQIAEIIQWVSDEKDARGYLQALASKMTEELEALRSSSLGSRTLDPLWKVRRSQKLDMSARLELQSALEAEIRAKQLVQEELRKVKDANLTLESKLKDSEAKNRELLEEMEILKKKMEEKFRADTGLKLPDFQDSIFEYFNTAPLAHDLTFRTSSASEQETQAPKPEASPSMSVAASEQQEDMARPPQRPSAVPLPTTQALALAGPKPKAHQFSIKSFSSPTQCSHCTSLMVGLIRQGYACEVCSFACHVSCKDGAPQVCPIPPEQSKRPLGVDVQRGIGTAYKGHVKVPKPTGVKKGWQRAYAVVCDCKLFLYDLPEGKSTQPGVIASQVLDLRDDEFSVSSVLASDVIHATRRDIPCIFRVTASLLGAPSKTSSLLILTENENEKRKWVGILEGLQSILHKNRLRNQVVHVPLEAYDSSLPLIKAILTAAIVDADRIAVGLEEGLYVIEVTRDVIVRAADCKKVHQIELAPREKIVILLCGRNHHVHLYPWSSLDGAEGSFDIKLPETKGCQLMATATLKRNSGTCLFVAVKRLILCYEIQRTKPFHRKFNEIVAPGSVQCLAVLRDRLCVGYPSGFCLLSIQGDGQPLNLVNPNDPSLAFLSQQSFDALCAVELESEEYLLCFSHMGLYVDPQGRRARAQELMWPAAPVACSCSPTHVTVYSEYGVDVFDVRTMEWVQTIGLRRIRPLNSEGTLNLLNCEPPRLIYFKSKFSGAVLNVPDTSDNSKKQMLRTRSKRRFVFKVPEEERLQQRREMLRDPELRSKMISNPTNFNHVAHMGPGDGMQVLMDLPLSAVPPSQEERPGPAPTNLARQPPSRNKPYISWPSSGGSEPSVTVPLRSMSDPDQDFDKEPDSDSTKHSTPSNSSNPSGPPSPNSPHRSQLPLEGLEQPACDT
# INSRR (human) = INSRR (human) (UniProt P14616)
# LTK (human) = LTK (human) (UniProt P29376)
# Chain of LTK (human) (P29376 whole entry, looked up): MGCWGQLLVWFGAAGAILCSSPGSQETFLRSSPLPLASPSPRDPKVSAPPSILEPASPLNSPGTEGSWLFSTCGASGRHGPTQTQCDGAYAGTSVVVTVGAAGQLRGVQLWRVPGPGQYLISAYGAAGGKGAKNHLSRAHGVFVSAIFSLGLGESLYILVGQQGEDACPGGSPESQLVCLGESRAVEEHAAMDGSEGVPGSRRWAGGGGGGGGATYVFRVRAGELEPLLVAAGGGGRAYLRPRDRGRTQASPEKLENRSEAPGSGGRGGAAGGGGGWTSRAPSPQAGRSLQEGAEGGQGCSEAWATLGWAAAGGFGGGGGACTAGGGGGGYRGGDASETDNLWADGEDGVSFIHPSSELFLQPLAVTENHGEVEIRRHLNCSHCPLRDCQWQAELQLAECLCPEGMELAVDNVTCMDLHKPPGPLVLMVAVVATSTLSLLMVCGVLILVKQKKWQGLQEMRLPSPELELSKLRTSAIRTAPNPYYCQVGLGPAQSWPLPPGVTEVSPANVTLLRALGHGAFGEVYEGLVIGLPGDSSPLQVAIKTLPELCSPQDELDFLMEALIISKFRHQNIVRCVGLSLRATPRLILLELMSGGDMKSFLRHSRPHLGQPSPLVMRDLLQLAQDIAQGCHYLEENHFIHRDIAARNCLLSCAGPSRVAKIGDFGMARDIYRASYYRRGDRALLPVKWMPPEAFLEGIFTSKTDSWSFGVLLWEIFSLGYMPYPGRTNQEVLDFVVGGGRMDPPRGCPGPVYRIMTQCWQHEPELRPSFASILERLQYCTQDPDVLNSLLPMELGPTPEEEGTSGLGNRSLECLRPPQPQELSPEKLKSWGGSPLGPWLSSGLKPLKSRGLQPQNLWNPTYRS
# CSNK1G1 (human) = CSNK1G1 (human) (UniProt Q9HCP0)
# STK24 (human) = STK24 (human) (UniProt Q9Y6E0)
# LRRK2 (human) = LRRK2 (human) (UniProt Q5S007)
# KDR (human) = KDR (human) (UniProt P35968)
# GSK3A (human) = GSK3A (human) (UniProt P49840)
# Chain of GSK3A (human) (P49840 whole entry, looked up): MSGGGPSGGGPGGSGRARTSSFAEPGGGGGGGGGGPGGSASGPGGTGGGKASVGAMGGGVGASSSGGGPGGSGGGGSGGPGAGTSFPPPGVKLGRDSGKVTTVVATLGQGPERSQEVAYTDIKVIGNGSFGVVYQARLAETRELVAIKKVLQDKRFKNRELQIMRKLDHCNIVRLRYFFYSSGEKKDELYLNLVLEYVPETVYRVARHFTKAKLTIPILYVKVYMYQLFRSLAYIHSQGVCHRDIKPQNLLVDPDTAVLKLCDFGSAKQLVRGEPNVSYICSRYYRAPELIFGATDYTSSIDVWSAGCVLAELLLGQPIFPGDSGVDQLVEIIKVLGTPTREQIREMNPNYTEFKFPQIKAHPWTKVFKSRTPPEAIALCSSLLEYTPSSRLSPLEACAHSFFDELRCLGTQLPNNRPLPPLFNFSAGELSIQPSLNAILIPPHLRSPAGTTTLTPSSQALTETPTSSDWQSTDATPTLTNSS
# CSNK2A2 (human) = CSNK2A2 (human) (UniProt P19784)
# AURKC (human) = AURKC (human) (UniProt Q9UQB9)
# MERTK (human) = MERTK (human) (UniProt Q12866)
# AURKA (human) = AURKA (human) (UniProt O14965)
# MARK4 (human) = MARK4 (human) (UniProt Q96L34)
# SRMS (human) = SRMS (human) (UniProt Q9H3Y6)
# MAP3K9 (human) = MAP3K9 (human) (UniProt P80192)
# EPHB2 (human) = EPHB2 (human) (UniProt P29323)
# DYRK1A (human) = DYRK1A (human) (UniProt Q13627)
# MAP4K2 (human) = MAP4K2 (human) (UniProt Q12851)
# PKN2 (human) = PKN2 (human) (UniProt Q16513)
# WNK3 (human) = WNK3 (human) (UniProt Q9BYP7)
# MAPK9 (human) = MAPK9 (human) (UniProt P45984)
Structure (SMILES),residual activity (MYLK2 (human)) [%],residual activity (FRK (human)) [%],residual activity (MAP3K5 (human)) [%],residual activity (CDK5 CDK5R1 p35 (human)) [%],residual activity (PBK (human)) [%],residual activity (PLK1 (human)) [%],residual activity (IGF1R (human)) [%],residual activity (CDK4 CCND1 (human)) [%],residual activity (CAMK2A (human)) [%],residual activity [1] [%],residual activity (MET (human)) [%],residual activity (INSRR (human)) [%],residual activity (LTK (human)) [%],residual activity (CSNK1G1 (human)) [%],residual activity (STK24 (human)) [%],residual activity (LRRK2 (human)) [%],residual activity (KDR (human)) [%],residual activity (GSK3A (human)) [%],residual activity (AURKC (human)) [%],residual activity (MERTK (human)) [%],also measured
CC(C)c1nn(-c2c(Cl)cccc2Cl)c2nc(Cc3ccc(OCCO)cc3)nc(O)c12,96.6,89.6,119,9.64,101,93.9,24.8,86.8,106,101,91,94.2,87.4,101,47.9,109,105,73.1,87.6,96.1,residual activity (EPHB1 (human)): 91.3%; residual activity (CDC42BPB (human)): 105%; residual activity (CSNK2A2 (human)): 92.2%; residual activity (AURKA (human)): 107%; residual activity (MARK4 (human)): 99.5%; residual activity (SRMS (human)): 91.5%; residual activity (MAP3K9 (human)): 95.7%; residual activity (EPHB2 (human)): 92.5%; residual activity (DYRK1A (human)): 105%; residual activity (MAP4K2 (human)): 106%; residual activity (PKN2 (human)): 97.5%; residual activity (WNK3 (human)): 96.7%; residual activity (MAPK9 (human)): 96.5%
Cc1nc2cc3nc(-c4cccs4)cnc3cc2n1C,74.5,98.9,98.9,107,98.9,109,96.4,108,105,105,111,99.5,95.2,92.2,103,106,77.4,94.1,93.3,90.4,residual activity (EPHB1 (human)): 107%; residual activity (CDC42BPB (human)): 100%; residual activity (CSNK2A2 (human)): 99%; residual activity (AURKA (human)): 84.8%; residual activity (MARK4 (human)): 105%; residual activity (SRMS (human)): 95.4%; residual activity (MAP3K9 (human)): 90.3%; residual activity (EPHB2 (human)): 101%; residual activity (DYRK1A (human)): 99.9%; residual activity (MAP4K2 (human)): 110%; residual activity (PKN2 (human)): 71%; residual activity (WNK3 (human)): 96.9%; residual activity (MAPK9 (human)): 74.7%
O=C(O)/C=C/c1cc(Br)c(Br)c(Br)c1Br,86.8,102,94,92.4,96.2,68.7,96,89.3,64.4,98.8,84.5,88.2,94.5,97.2,86.1,87.6,90.1,91.5,90.3,92.4,residual activity (EPHB1 (human)): 95.2%; residual activity (CDC42BPB (human)): 97.4%; residual activity (CSNK2A2 (human)): 17%; residual activity (AURKA (human)): 77.2%; residual activity (MARK4 (human)): 93.1%; residual activity (SRMS (human)): 89.3%; residual activity (MAP3K9 (human)): 101%; residual activity (EPHB2 (human)): 103%; residual activity (DYRK1A (human)): 74.8%; residual activity (MAP4K2 (human)): 89.3%; residual activity (PKN2 (human)): 95.6%; residual activity (WNK3 (human)): 89.8%; residual activity (MAPK9 (human)): 96.4%
O=C1NC(=O)C(c2cn(CCCO)c3ncccc23)=C1c1cnccn1,81.1,88.3,88.9,73.9,94.9,103,98.4,89.5,108,117,121,93.2,90.9,101,72.1,90,82.1,8.56,113,78.7,residual activity (AURKA (human)): 107%; residual activity (MARK4 (human)): 93.9%; residual activity (SRMS (human)): 95.9%; residual activity (MAP3K9 (human)): 85.5%; residual activity (EPHB2 (human)): 78.3%; residual activity (DYRK1A (human)): 108%; residual activity (MAP4K2 (human)): 67.4%; residual activity (PKN2 (human)): 83.3%; residual activity (WNK3 (human)): 91.3%; residual activity (MAPK9 (human)): 100%
O=C1Nc2ccccc2/C1=C1/Nc2ccccc2/C1=N\OCCC(O)CO (centres undefined),27.3,49.7,91.2,14.3,80.6,103,39.1,96.4,12.2,25.9,123,2.77,34.7,89.2,51.9,81.2,56.4,7.31,43.2,49.4,residual activity (EPHB1 (human)): 65.9%; residual activity (CDC42BPB (human)): 96.6%; residual activity (CSNK2A2 (human)): 28.3%; residual activity (AURKA (human)): 9.78%; residual activity (MARK4 (human)): 43.5%; residual activity (SRMS (human)): 102%; residual activity (MAP3K9 (human)): 7.06%; residual activity (EPHB2 (human)): 75%; residual activity (DYRK1A (human)): 82.8%; residual activity (MAP4K2 (human)): 51.7%; residual activity (PKN2 (human)): 90.1%; residual activity (WNK3 (human)): 79.7%; residual activity (MAPK9 (human)): 44.3%
CC(=O)O/N=C1\C(=C2\C(=O)Nc3cc(Br)ccc32)Nc2ccccc21,55,51.2,95.8,24.7,76.8,105,106,73.3,89.2,104,98.2,96.7,83.3,93.9,70.9,87.6,74.2,6.49,86,77,residual activity (EPHB1 (human)): 99.9%; residual activity (CDC42BPB (human)): 94.7%; residual activity (AURKA (human)): 55.4%; residual activity (MARK4 (human)): 77.6%; residual activity (SRMS (human)): 98%; residual activity (MAP3K9 (human)): 51.5%; residual activity (EPHB2 (human)): 81.4%; residual activity (DYRK1A (human)): 111%; residual activity (MAP4K2 (human)): 44%; residual activity (PKN2 (human)): 85.4%; residual activity (WNK3 (human)): 93%; residual activity (MAPK9 (human)): 90.5%
